Patent US9908868B2, “Isoindolinone compounds as GPR119 modulators for the treatment of diabetes, obesity, dyslipidemia and related disorders” (SANOFI, priority 2014, dated 2018)

molecular target: T1, human GPR119 (Homo sapiens, UniProt Q8TDV5); test: Functional cellular assay measuring GPR119-mediated cAMP release (HTRF) in HEK-293 cells stably expressing recombinant human GPR119; format: cell-based; details: cAMP response, cell line expressing human GPR119, 30 minutes at room temperature
T1 construct: expressed in transfected cells
T1 sequence (Q8TDV5 1-335): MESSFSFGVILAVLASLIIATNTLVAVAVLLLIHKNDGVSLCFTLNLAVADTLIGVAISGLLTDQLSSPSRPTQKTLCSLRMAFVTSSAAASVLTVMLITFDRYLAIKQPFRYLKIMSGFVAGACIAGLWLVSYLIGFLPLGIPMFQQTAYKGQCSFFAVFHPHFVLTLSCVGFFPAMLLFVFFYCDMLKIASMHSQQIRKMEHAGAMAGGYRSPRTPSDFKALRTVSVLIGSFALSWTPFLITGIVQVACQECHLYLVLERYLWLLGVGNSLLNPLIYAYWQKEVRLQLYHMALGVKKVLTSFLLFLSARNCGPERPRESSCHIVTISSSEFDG
Protocol: Functional Cellular Assays Measuring GPR119-Mediated cAMP Release
Compounds of the invention, which are agonists of GPR119, were characterized by functional assays measuring the cAMP response of HEK-293 cell lines stably expressing recombinant GPR119 from man, mouse or rat, or by using a hamster cell line HIT-T15 expressing GPR119 endogenously. The cAMP content was determined using a kit based on homogenous time-resolved fluorescence (HTRF) from Cisbio Corp. (cat. no. 62AM4PEC). For preparation, cells were split into T175 culture flasks and grown to near confluency in medium (DMEM/10% FCS for HEK-293 cells, and F-12K medium/10% horse serum/2.5% FCS for HIT-T15 cells, respectively). Medium was then removed and cells washed with PBS lacking calcium and magnesium ions, followed by proteinase treatment with accutase (Sigma-Aldrich, cat. no. A6964). Detached cells were washed and resuspended in assay buffer (1×HBSS; 20 mM HEPES, 0.1% BSA, 2 mM IBMX) and cellular density determined. They were then diluted to 400000 cells/mL and 25 μL-aliquots dispensed to the wells of 96-well plates. For measurement, 25 μL of test compound in assay buffer was added and incubated for 30 minutes at room temperature. After addition of HTRF reagents diluted in lysis buffer, the plates were incubated for 1 hour, followed by measuring the fluorescence ratio at 665 vs. 620 nm. Potency of the agonists was quantified by determining the concentrations that caused 50% of the maximal response/activation (EC50). See Table 7 for exemplary data obtained using the cell line expressing human GPR119.

| EC50 | SMILES |
| --- | --- |
| 117 nM | CN(C)C(=O)CN1Cc2ccc(N3CC[C@@H](Oc4ccc(-c5nccs5)cc4)C3=O)cc2C1=O [Example 2-42, N,N-dimethyl-2-[1-oxo-6-[(3R)-2-oxo-3-(4-thiazol-2-ylphenoxy)pyrrolidin-1-yl]isoindolin-2-yl]acetamide] |
| 268 nM | Cc1nc(-c2ccc(O[C@@H]3CCN(c4ccc5c(c4)C(=O)N(CC(=O)N(C)C)C5)C3=O)cc2)no1 [Example 2-32, N,N-dimethyl-2-[6-[(3R)-3-[4-(5-methyl-1,2,4-oxadiazol-3-yl)phenoxy]-2-oxo-pyrrolidin-1-yl]-1-oxo-isoindolin-2-yl]acetamide] |
| 218 nM | O=C(CN1Cc2ccc(N3CC[C@@H](Oc4ccc(OCC(F)(F)F)nc4)C3=O)cc2C1=O)N1CC(O)C1 [Example 1-47, 2-[2-(3-hydroxyazetidin-1-yl)-2-oxo-ethyl]-6-[(3R)-2-oxo-3-[[6-(2,2,2-trifluoroethoxy)-3-pyridyl]oxy]pyrrolidin-1-yl]isoindolin-1-one] |
| 40 nM | CCN(CC)C(=O)CN1Cc2ccc(N3CC[C@@H](Oc4ccc(OCC(F)(F)F)nc4)C3=O)cc2C1=O [Example 4-41, N,N-diethyl-2-[1-oxo-6-[(3R)-2-oxo-3-[[6-(2,2,2-trifluoroethoxy)-3-pyridyl]oxy]pyrrolidin-1-yl]isoindolin-2-yl]acetamide] |
| 197 nM | O=C(CN1Cc2ccc(N3CC[C@@H](Oc4ccc(OCC5CC5)nc4)C3=O)cc2C1=O)N1CC(O)C1 [Example 4-04, 6-[(3R)-3-[[6-(cyclopropylmethoxy)-3-pyridyl]oxy]-2-oxo-pyrrolidin-1-yl]-2-[2-(3-hydroxyazetidin-1-yl)-2-oxo-ethyl]isoindolin-1-one] |
| 81 nM | CS(=O)(=O)CN1Cc2ncc(N3CC[C@@H](Oc4ccc(OCC(F)(F)F)nc4)C3=O)cc2C1=O [Example 1-67, 6-(methylsulfonylmethyl)-3-[(3R)-2-oxo-3-[[6-(2,2,2-trifluoroethoxy)-3-pyridyl]oxy]pyrrolidin-1-yl]-7H-pyrrolo[3,4-b]pyridin-5-one] |
| 98 nM | CN(C)C(=O)CN1Cc2ccc(N3CC[C@@H](Oc4ccc(C(=O)C5CC(F)(F)C5)cc4)C3=O)cc2C1=O [Example 2-63, 2-[6-[(3R)-3-[4-(3,3-difluorocyclobutanecarbonyl)phenoxy]-2-oxo-pyrrolidin-1-yl]-1-oxo-isoindolin-2-yl]-N,N-dimethyl-acetamide] |
| 157 nM | O=C(CN1Cc2c(F)cc(N3CC[C@@H](Oc4ccc(OCCC5CC5)nc4)C3=O)cc2C1=O)NCCO [Example 4-29, 2-[6-[(3R)-3-[[6-(2-cyclopropylethoxy)-3-pyridyl]oxy]-2-oxo-pyrrolidin-1-yl]-4-fluoro-1-oxo-isoindolin-2-yl]-N-(2-hydroxyethyl)acetamide] |
| 89 nM | CC(C)(C)OC(=O)CN1Cc2c(F)cc(N3CC[C@@H](Oc4ccc(OCC5CC5)nc4)C3=O)cc2C1=O [Example 1-01, Tert-butyl 2-[6-[(3R)-3-[[6-(cyclopropylmethoxy)-3-pyridyl]oxy]-2-oxo-pyrrolidin-1-yl]-4-fluoro-1-oxo-isoindolin-2-yl]acetate] |
| 1510 nM | CCOC(=O)CCc1cc(O[C@@H]2CCN(c3ccc4c(c3)C(=O)N(CC(=O)N(C)C)C4)C2=O)ccc1Cl [Example 2-45, ethyl 3-[2-chloro-5-[(3R)-1-[2-[2-(dimethylamino)-2-oxo-ethyl]-3-oxo-isoindolin-5-yl]-2-oxo-pyrrolidin-3-yl]oxy-phenyl]propanoate] |
| 106 nM | CN(C)C(=O)CN1Cc2ccc(N3CC[C@@H](Oc4ccc(C(=O)c5ccc(F)cc5)nc4)C3=O)cc2C1=O [Example 2-61, 2-[6-[(3R)-3-[[6-(4-fluorobenzoyl)-3-pyridyl]oxy]-2-oxo-pyrrolidin-1-yl]-1-oxo-isoindolin-2-yl]-N,N-dimethyl-acetamide] |
| 84 nM | CC(C)c1noc(-c2ccc(O[C@@H]3CCN(c4ccc5c(c4)C(=O)N(CC(=O)N(C)C)C5)C3=O)cc2)n1 [Example 2-34, 2-[6-[(3R)-3-[4-(3-isopropyl-1,2,4-oxadiazol-5-yl)phenoxy]-2-oxo-pyrrolidin-1-yl]-1-oxo-isoindolin-2-yl]-N,N-dimethyl-acetamide] |
| 424 nM | CC1(C(=O)c2ccc(O[C@@H]3CCN(c4ccc5c(c4)C(=O)N(CC(N)=O)C5)C3=O)cn2)CC1 [Example 2-49, 2-[6-[(3R)-3-[[6-(1-methylcyclopropanecarbonyl)-3-pyridyl]oxy]-2-oxo-pyrrolidin-1-yl]-1-oxo-isoindolin-2-yl]acetamide] |
| 205 nM | CCNC(=O)CN1Cc2ccc(N3CC[C@@H](Oc4ccc(OCC(F)(F)F)nc4)C3=O)cc2C1=O [Example 4-39, N-ethyl-2-[1-oxo-6-[(3R)-2-oxo-3-[[6-(2,2,2-trifluoroethoxy)-3-pyridyl]oxy]pyrrolidin-1-yl]isoindolin-2-yl]acetamide] |
| 1470 nM | CN(C)C(=O)CN1Cc2ccc(N3CC[C@@H](Oc4ccc(N5CCCC5=O)cc4)C3=O)cc2C1=O [Example 2-28, N,N-dimethyl-2-[1-oxo-6-[(3R)-2-oxo-3-[4-(2-oxopyrrolidin-1-yl)phenoxy]pyrrolidin-1-yl]isoindolin-2-yl]acetamide] |
| 52 nM | COC(=O)CN1Cc2ccc(N3CC[C@@H](Oc4ccc(OCC(F)(F)F)nc4)C3=O)cc2C1=O [Example 1-65, methyl 2-[1-oxo-6-[(3R)-2-oxo-3-[[6-(2,2,2-trifluoroethoxy)-3-pyridyl]oxy]pyrrolidin-1-yl]isoindolin-2-yl]acetate] |
| 126 nM | NC(=O)CN1Cc2ccc(N3CC[C@@H](Oc4ccc(-c5nccs5)cc4)C3=O)cc2C1=O [Example 2-51, 2-[1-oxo-6-[(3R)-2-oxo-3-(4-thiazol-2-ylphenoxy)pyrrolidin-1-yl]isoindolin-2-yl]acetamide] |
| 131 nM | CNC(=O)CN1Cc2ccc(N3CC[C@@H](Oc4ccc(OCC(F)(F)F)nc4)C3=O)cc2C1=O [Example 4-38, N-methyl-2-[1-oxo-6-[(3R)-2-oxo-3-[[6-(2,2,2-trifluoroethoxy)-3-pyridyl]oxy]pyrrolidin-1-yl]isoindolin-2-yl]acetamide] |
| 609 nM | O=C1c2cc(N3CC[C@@H](Oc4ccc(OCCC5CC5)nc4)C3=O)cc(F)c2CN1CCCO [Example 5-06, 6-[(3R)-3-[[6-(2-cyclopropylethoxy)-3-pyridyl]oxy]-2-oxo-pyrrolidin-1-yl]-4-fluoro-2-(3-hydroxypropyl)isoindolin-1-one] |
| 184 nM | O=C(CN1Cc2ccc(N3CC[C@@H](Oc4ccc(OCC(F)(F)F)nc4)C3=O)cc2C1=O)N1CCC(O)CC1 [Example 1-46, 2-[2-(4-hydroxy-1-piperidyl)-2-oxo-ethyl]-6-[(3R)-2-oxo-3-[[6-(2,2,2-trifluoroethoxy)-3-pyridyl]oxy]pyrrolidin-1-yl]isoindolin-1-one] |
| 47 nM | CN(C)C(=O)CN1Cc2ccc(N3CC[C@@H](Oc4ccc(Oc5ccc(F)cc5)cc4)C3=O)cc2C1=O [Example 2-16, 2-[6-[(3R)-3-[4-(4-fluorophenoxy)phenoxy]-2-oxo-pyrrolidin-1-yl]-1-oxo-isoindolin-2-yl]-N,N-dimethyl-acetamide] |
| 142 nM | O=C1c2cc(N3CC[C@@H](Oc4ccc(OCCC5CC5)nc4)C3=O)cc(F)c2CN1CCO [Example 1-36, 6-[(3R)-3-[[6-(2-cyclopropylethoxy)-3-pyridyl]oxy]-2-oxo-pyrrolidin-1-yl]-4-fluoro-2-(2-hydroxyethyl)isoindolin-1-one] |
